{"source": "patent US20110086759A1", "about": "“CHEMICAL COMPOUNDS” (SYNGENTA CROP PROTECTION, INC., priority 2007, published 2011)", "assay_type_in_all_cases": "in vivo", "key": {"[1]": {"system": "Alopecurus myosuroides (ALOMY)", "assay": "Pre-emergence biological efficacy, glasshouse pot test", "conditions": "312 h, pre-emergence, 1,000 g/ha, evaluated after 13 days (100=total damage; 0=no damage), read-out: Percentage damage ALOMY", "how_it_was_run": "(§1)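 Sow seeds in pots of standard soil; after one day in the glasshouse, spray test compound (1000 or 250 g/ha) in aqueous acetone/water with 0.5% Tween 20. Grow 13 days at 24/16 °C day/night, then score damage from 0 to 100.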"}, "[2]": {"system": "Echinochloa crus-galli (ECHCG)", "assay": "Pre-emergence biological efficacy, glasshouse pot test", "conditions": "312 h, pre-emergence, 1,000 g/ha, evaluated after 13 days (100=total damage; 0=no damage), read-out: Percentage damage ECHCG", "how_it_was_run": "as §1"}, "[3]": {"system": "Amaranthus retoflexus (AMARE)", "assay": "Pre-emergence biological efficacy, glasshouse pot test", "conditions": "Amaranthus retroflexus, 312 h; pre-emergence, 1,000 g/ha, evaluated after 13 days (100=total damage; 0=no damage); read-out: Percentage damage AMARE", "how_it_was_run": "as §1"}, "[4]": {"system": "Ipomea hederaceae (IPOHE)", "assay": "Pre-emergence biological efficacy, glasshouse pot test", "conditions": "Ipomoea hederacea, 312 h; pre-emergence, 1,000 g/ha, evaluated after 13 days (100=total damage; 0=no damage); read-out: Percentage damage IPOHE", "how_it_was_run": "as §1"}, "[5]": {"system": "Setaria faberi (SETFA)", "assay": "Pre-emergence biological efficacy, glasshouse pot test", "conditions": "312 h, pre-emergence, 1,000 g/ha, evaluated after 13 days (100=total damage; 0=no damage), read-out: Percentage damage SETFA", "how_it_was_run": "as §1"}, "[6]": {"system": "Solanum nigrum (SOLNI)", "assay": "Pre-emergence biological efficacy, glasshouse pot test", "conditions": "312 h, pre-emergence, 1,000 g/ha, evaluated after 13 days (100=total damage; 0=no damage), read-out: Percentage damage SOLNI", "how_it_was_run": "as §1"}, "[7]": {"system": "Alopecurus myosuroides (ALOMY)", "assay": "Post-emergence biological efficacy, glasshouse pot test", "conditions": "312 h, post-emergence, 1,000 g/ha, evaluated after 13 days (100=total damage; 0=no damage), read-out: Percentage damage caused to weed species, ALOMY", "how_it_was_run": "(§2)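 Scored 13 days after spraying on a 0 (no damage) to 100 (total damage) scale. Treatment was a post-emergence spray at 1000 or 250 g/ha, from acetone/water 50:50 plus 0.5% Tween 20, onto 8-day-old plants in soil pots. Growth at 24/16° C, 14 h photoperiod, 65% humidity, watered twice daily.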"}, "[8]": {"system": "Echinochloa crus-galli (ECHCG)", "assay": "Post-emergence biological efficacy, glasshouse pot test", "conditions": "312 h, post-emergence, 1,000 g/ha, evaluated after 13 days (100=total damage; 0=no damage), read-out: Percentage damage caused to weed species, ECHCG", "how_it_was_run": "as §2"}, "[9]": {"system": "Amaranthus retoflexus (AMARE)", "assay": "Post-emergence biological efficacy, glasshouse pot test", "conditions": "Amaranthus retroflexus, 312 h; post-emergence, 1,000 g/ha, evaluated after 13 days (100=total damage; 0=no damage); read-out: Percentage damage caused to weed species, AMARE", "how_it_was_run": "as §2"}, "[10]": {"system": "Ipomea hederaceae (IPOHE)", "assay": "Post-emergence biological efficacy, glasshouse pot test", "conditions": "Ipomoea hederacea, 312 h; post-emergence, 1,000 g/ha, evaluated after 13 days (100=total damage; 0=no damage); read-out: Percentage damage caused to weed species, IPOHE", "how_it_was_run": "as §2"}, "[11]": {"system": "Setaria faberi (SETFA)", "assay": "Post-emergence biological efficacy, glasshouse pot test", "conditions": "312 h, post-emergence, 1,000 g/ha, evaluated after 13 days (100=total damage; 0=no damage), read-out: Percentage damage caused to weed species, SETFA", "how_it_was_run": "as §2"}, "[12]": {"system": "Solanum nigrum (SOLNI)", "assay": "Post-emergence biological efficacy, glasshouse pot test", "conditions": "312 h, post-emergence, 1,000 g/ha, evaluated after 13 days (100=total damage; 0=no damage), read-out: Percentage damage caused to weed species, SOLNI", "how_it_was_run": "as §2"}}}
{"molecule": "COC(=O)c1nc(C2CC2)nc(N[C@@H](Cc2cccc(C(F)(F)F)c2)C(=O)OC)c1Cl", "note": "[4-286 (S), 5-Chloro-2-cyclopropyl-6-methoxycarbonyl-4-[(1S)-1-methoxy-carbonyl-2-(3-trifluoromethyl-phenyl)-ethylamino]-pyrimidine]", "values": [{"measurement": "pest or weed control at 1000 g/ha", "setting": "[1]", "result": 10, "unit": "%"}, {"measurement": "pest or weed control at 1000 g/ha", "setting": "[2]", "result": 20, "unit": "%"}, {"measurement": "pest or weed control at 1000 g/ha", "setting": "[3]", "result": 90, "unit": "%"}, {"measurement": "pest or weed control at 1000 g/ha", "setting": "[4]", "result": 100, "unit": "%"}, {"measurement": "pest or weed control at 1000 g/ha", "setting": "[5]", "result": 20, "unit": "%"}, {"measurement": "pest or weed control at 1000 g/ha", "setting": "[6]", "result": 80, "unit": "%"}, {"measurement": "pest or weed control at 1000 g/ha", "setting": "[7]", "result": 10, "unit": "%"}, {"measurement": "pest or weed control at 1000 g/ha", "setting": "[8]", "result": 10, "unit": "%"}, {"measurement": "pest or weed control at 1000 g/ha", "setting": "[9]", "result": 100, "unit": "%"}, {"measurement": "pest or weed control at 1000 g/ha", "setting": "[10]", "result": 50, "unit": "%"}, {"measurement": "pest or weed control at 1000 g/ha", "setting": "[11]", "result": 20, "unit": "%"}, {"measurement": "pest or weed control at 1000 g/ha", "setting": "[12]", "result": 80, "unit": "%"}]}
{"molecule": "COC(=O)c1nc(C2CC2)nc(NC2(/C=C/c3ccc(F)cc3F)CC2)c1Cl", "note": "[Compound 4-31, 5-Chloro-2-cyclopropyl-4-{1-[2-(2,4-difluoro-phenyl)-ethenyl]-cyclopropylamino}-6-methoxy-carbonylpyrimidine]", "values": [{"measurement": "pest or weed control at 1000 g/ha", "setting": "[1]", "result": 0, "unit": "%"}, {"measurement": "pest or weed control at 1000 g/ha", "setting": "[2]", "result": 0, "unit": "%"}, {"measurement": "pest or weed control at 1000 g/ha", "setting": "[3]", "result": 80, "unit": "%"}, {"measurement": "pest or weed control at 1000 g/ha", "setting": "[4]", "result": 70, "unit": "%"}, {"measurement": "pest or weed control at 1000 g/ha", "setting": "[5]", "result": 0, "unit": "%"}, {"measurement": "pest or weed control at 1000 g/ha", "setting": "[6]", "result": 20, "unit": "%"}, {"measurement": "pest or weed control at 1000 g/ha", "setting": "[7]", "result": 10, "unit": "%"}, {"measurement": "pest or weed control at 1000 g/ha", "setting": "[8]", "result": 30, "unit": "%"}, {"measurement": "pest or weed control at 1000 g/ha", "setting": "[9]", "result": 100, "unit": "%"}, {"measurement": "pest or weed control at 1000 g/ha", "setting": "[10]", "result": 80, "unit": "%"}, {"measurement": "pest or weed control at 1000 g/ha", "setting": "[11]", "result": 80, "unit": "%"}, {"measurement": "pest or weed control at 1000 g/ha", "setting": "[12]", "result": 90, "unit": "%"}]}
{"molecule": "COC(=O)c1nc(C2CC2)nc(NCCc2cc(C(F)(F)F)cc(Cl)n2)c1Cl", "note": "[Compound 4-229, 5-Chloro-4-[2-(6-chloro-4-trifluoromethyl-pyrid-2-yl)ethylamino]-2-cyclopropyl-6-methoxycarbonyl-pyrimidine]", "values": [{"measurement": "pest or weed control at 1000 g/ha", "setting": "[1]", "result": 0, "unit": "%"}, {"measurement": "pest or weed control at 1000 g/ha", "setting": "[2]", "result": 0, "unit": "%"}, {"measurement": "pest or weed control at 1000 g/ha", "setting": "[3]", "result": 30, "unit": "%"}, {"measurement": "pest or weed control at 1000 g/ha", "setting": "[4]", "result": 20, "unit": "%"}, {"measurement": "pest or weed control at 1000 g/ha", "setting": "[5]", "result": 10, "unit": "%"}, {"measurement": "pest or weed control at 1000 g/ha", "setting": "[6]", "result": 20, "unit": "%"}, {"measurement": "pest or weed control at 1000 g/ha", "setting": "[7]", "result": 10, "unit": "%"}, {"measurement": "pest or weed control at 1000 g/ha", "setting": "[8]", "result": 20, "unit": "%"}, {"measurement": "pest or weed control at 1000 g/ha", "setting": "[9]", "result": 100, "unit": "%"}, {"measurement": "pest or weed control at 1000 g/ha", "setting": "[10]", "result": 60, "unit": "%"}, {"measurement": "pest or weed control at 1000 g/ha", "setting": "[11]", "result": 70, "unit": "%"}, {"measurement": "pest or weed control at 1000 g/ha", "setting": "[12]", "result": 90, "unit": "%"}]}
{"molecule": "COC(=O)c1nc(C2CC2)nc(NC(Cc2ccccc2)C(=O)OC)c1Cl", "note": "(stereo not drawn) [Compound 4-283, 5-Chloro-2-cyclopropyl-6-methoxycarbonyl-4-(1-methoxy-carbonyl-2-phenylethylamino)-pyrimidine]", "values": [{"measurement": "pest or weed control at 1000 g/ha", "setting": "[1]", "result": 40, "unit": "%"}, {"measurement": "pest or weed control at 1000 g/ha", "setting": "[2]", "result": 70, "unit": "%"}, {"measurement": "pest or weed control at 1000 g/ha", "setting": "[3]", "result": 100, "unit": "%"}, {"measurement": "pest or weed control at 1000 g/ha", "setting": "[4]", "result": 100, "unit": "%"}, {"measurement": "pest or weed control at 1000 g/ha", "setting": "[5]", "result": 80, "unit": "%"}, {"measurement": "pest or weed control at 1000 g/ha", "setting": "[6]", "result": 100, "unit": "%"}, {"measurement": "pest or weed control at 1000 g/ha", "setting": "[7]", "result": 20, "unit": "%"}, {"measurement": "pest or weed control at 1000 g/ha", "setting": "[8]", "result": 60, "unit": "%"}, {"measurement": "pest or weed control at 1000 g/ha", "setting": "[9]", "result": 100, "unit": "%"}, {"measurement": "pest or weed control at 1000 g/ha", "setting": "[10]", "result": 70, "unit": "%"}, {"measurement": "pest or weed control at 1000 g/ha", "setting": "[11]", "result": 60, "unit": "%"}, {"measurement": "pest or weed control at 1000 g/ha", "setting": "[12]", "result": 80, "unit": "%"}]}
